# Measurements from patent US20180284095A1, “BIOMARKERS ASSOCIATED WITH LSD1 INHIBITORS AND USES THEREOF” (Oryzon Genomics, S.A., priority 2015, published 2018).
# Legend:
# Format in all cases: in vivo, mouse
# [1] = test system: S100A8; assay: Microarray gene expression in brain, spleen and liver of Hsd:Athymic Nude-Foxn1nu mice (Example 7)
# Protocol: (§1) Total RNA was extracted from samples using the RNeasy extraction kit (Qiagen). The quality and concentration of the RNA was analyzed using the Agilent 2100 bioanalyzer and NanoDrop™ ND-1000 (Thermo Scientific). Samples with RNA integrity number (RIN)<6.0 were discarded. Total RNA (0.5 μg) amplification and labelling with Cy3 or Cy5 was carried out using the Eberwein mRNA amplification procedure (Van Gelder et al, Proc Natl Acad Sci USA 1990, 87:1663-1667) employing the MessageAmp™ aRNA amplification kit from Ambion (Applied Biosystems) following the manufacturer's instructions with minor modifications. As hybridization controls, plant mRNAs were transcribed from a plasmid containing the Zea mays Xet (xyloglucan endo-transglycosylase) cDNA and from a plasmid containing the Zea mays Zmmyb42 cDNA, independently prepared Cy3 and Cy5 labelled aRNA from these two RNAs using the Eberwein mRNA amplification procedure (as disclosed in Cerdà et al, Gen Comp Endocrinol 2008, 156:470-481).
# (§2) The Cy3- and Cy5-labelled cRNAs and spikes were combined and hybridized to the microarray described in Example 2.6 for 17 h at 60° C. using Agilent's gaskets G2534-60002, G2534A hybridization chambers and DNA Hybridization Oven G2545A, according to the manufacturer's instructions. More specifically, equal amounts of Cy3 and Cy5 labeled Xet aRNA as well as equal amounts of Cy3 and Cy5 labeled Zmmyb42 aRNA were spiked into each mixture hybridized to the array. Arrays were washed and raw data were obtained using Agilent's DNA Microarray Scanner G2505B and Feature Extraction software (v10.1). The raw fluorescence intensity data were processed using applicant's proprietary software, and consists in the following operations:
# (§3) Data normalization was carried out by an improved version of the nonlinear Q-splines normalization method (Workman et al., Genome Biol 2002, 3(9):research0048.1-0048.16). Normalization results were presented graphically as MA plots, as first described by Dudoit et al (Dudoit et al, Statistica Sinica, 2002, 12:111-139). Each point corresponds to a probe of the DNA array. M values (vertical axis) are the log-differential expression ratios. A values (horizontal axis) are the log-intensities of the spots. M and A are calculated from the Cy5 and Cy3 intensity values as of each spot. The DNA Array data is normalized using an improved version of non-linear Q-Splines normalization described by Workman et al., Genome Biol 2002, 3(9):research0048.1-0048.16. This process is useful to correct the deviation of the M values from the statistical assumption that most of the spots have M=0 in MA plots. The method allows the adjustment of all M values to form a cloud centered at M=0 in all intensity ranges. The data used to calculate the normalization fitting curve is the totality of the raw measurement dataset, excluding the signals for the probes for the spiked-in plant RNA controls and negative controls. In order to be able to normalize properly the data among all the experiments, the probe-set must include an important group of genes that should have no change (M=0) in the experiment. The normalization function is then applied to all the data, including controls.
# (§4) Normalized and log-transformed data were used to calculate log 2 (sample/control) and Fold Change (FC) values. No background subtraction was applied to the signal intensity values during data processing, permitting robust selection of differentially expressed genes with low expression levels at the cost of potential sub-estimation of change when intensity levels are close to the array background level.
# (§5) Powered Compound 3, 4 or 5 was dissolved in a 20% solution of 2-hydroxypropyl-R-cyclodextrin in water at the appropriate concentrations, vortexed and placed in an ultrasonic bath for 5 minutes.
# (§6) Hsd:Athymic Nude-Foxn1nu mice were maintained in air- and temperature-controlled cages with regular supply of water and food. A maximum of 6 mice/cage were raised. […]
# [2] = test system: S100A9; assay: as above
# Protocol: as §1, §2, §3, §4, §5, §6
# [3] = test system: TUBB2C; assay: Microarray gene expression in brain, spleen and liver of Hsd:Athymic Nude-Foxn1nu mice (Example 7), housekeeping gene
# Protocol: as §1, §2, §3, §4, §5, §6
# [4] = test system: TUBB3; assay: as above
# Protocol: as §1, §2, §3, §4, §5, §6
structure (smiles),measurement,setting,value
"N[C@H]1CCN(CCN[C@H]2C[C@@H]2c2ccc(-c3cccc(C(F)(F)F)c3)cc2)C1 (racemic) [Compound 5, (S)-1-(2-(((trans)-2-(3′-(trifluoromethyl)-[1,1′-biphenyl]-4-yl)cyclopropyl)amino)ethyl)pyrrolidin-3-amine]",Hybridization signal sample_Cy5,"[1]; BRAIN, S100A8, 3.3 mg/kg",268.162
same,log2 (sample/control),"[1]; BRAIN, S100A8, 3.3 mg/kg vs VEH",−0.6462
same,Hybridization signal sample_Cy5,"[1]; BRAIN, S100A8, 11 mg/kg",38.4889
same,log2 (sample/control),"[1]; BRAIN, S100A8, 11 mg/kg vs VEH",−3.263
same,Hybridization signal sample_Cy5,"[1]; BRAIN, S100A8, 33 mg/kg",36.6941
same,log2 (sample/control),"[1]; BRAIN, S100A8, 33 mg/kg vs VEH",−3.57
same,Hybridization signal sample_Cy5,"[1]; LIVER, S100A8, 3.3 mg/kg",315.439
same,log2 (sample/control),"[1]; LIVER, S100A8, 3.3 mg/kg vs VEH",−0.4761
same,Hybridization signal sample_Cy5,"[1]; LIVER, S100A8, 11 mg/kg",73.2915
same,log2 (sample/control),"[1]; LIVER, S100A8, 11 mg/kg vs VEH",−2.357
same,Hybridization signal sample_Cy5,"[1]; LIVER, S100A8, 33 mg/kg",57.5133
same,log2 (sample/control),"[1]; LIVER, S100A8, 33 mg/kg vs VEH",−2.909
same,Hybridization signal sample_Cy5,"[1]; SPLEEN, S100A8, 3.3 mg/kg",4802.3
same,log2 (sample/control),"[1]; SPLEEN, S100A8, 3.3 mg/kg vs VEH",−1.65
same,Hybridization signal sample_Cy5,"[1]; SPLEEN, S100A8, 11 mg/kg",382.984
same,log2 (sample/control),"[1]; SPLEEN, S100A8, 11 mg/kg vs VEH",−5.38
same,Hybridization signal sample_Cy5,"[1]; SPLEEN, S100A8, 33 mg/kg",408.877
same,log2 (sample/control),"[1]; SPLEEN, S100A8, 33 mg/kg vs VEH",−5.243
same,Hybridization signal sample_Cy5,"[2]; BRAIN, S100A9, 3.3 mg/kg",746.537
same,log2 (sample/control),"[2]; BRAIN, S100A9, 3.3 mg/kg vs VEH",−0.9635
same,Hybridization signal sample_Cy5,"[2]; BRAIN, S100A9, 11 mg/kg",60.5479
same,log2 (sample/control),"[2]; BRAIN, S100A9, 11 mg/kg vs VEH",−4.54
same,Hybridization signal sample_Cy5,"[2]; BRAIN, S100A9, 33 mg/kg",58.3941
same,log2 (sample/control),"[2]; BRAIN, S100A9, 33 mg/kg vs VEH",−4.697
same,Hybridization signal sample_Cy5,"[2]; LIVER, S100A9, 3.3 mg/kg",987.357
same,log2 (sample/control),"[2]; LIVER, S100A9, 3.3 mg/kg vs VEH",−0.5728
same,Hybridization signal sample_Cy5,"[2]; LIVER, S100A9, 11 mg/kg",170.929
same,log2 (sample/control),"[2]; LIVER, S100A9, 11 mg/kg vs VEH",−3.056
same,Hybridization signal sample_Cy5,"[2]; LIVER, S100A9, 33 mg/kg",113.971
same,log2 (sample/control),"[2]; LIVER, S100A9, 33 mg/kg vs VEH",−3.811
same,Hybridization signal sample_Cy5,"[2]; SPLEEN, S100A9, 3.3 mg/kg",13461.8
same,log2 (sample/control),"[2]; SPLEEN, S100A9, 3.3 mg/kg vs VEH",−1.719
same,Hybridization signal sample_Cy5,"[2]; SPLEEN, S100A9, 11 mg/kg",963.073
same,log2 (sample/control),"[2]; SPLEEN, S100A9, 11 mg/kg vs VEH",−5.625
same,Hybridization signal sample_Cy5,"[2]; SPLEEN, S100A9, 33 mg/kg",944.034
same,log2 (sample/control),"[2]; SPLEEN, S100A9, 33 mg/kg vs VEH",−5.685
same,Hybridization signal sample_Cy5,"[3]; BRAIN, 3.3 mg/kg",10642
same,log2 (sample/control),"[3]; BRAIN, 3.3 mg/kg vs VEH",−0.01396
same,Hybridization signal sample_Cy5,"[3]; BRAIN, 11 mg/kg",11161.1
same,log2 (sample/control),"[3]; BRAIN, 11 mg/kg vs VEH",−0.06127
same,Hybridization signal sample_Cy5,"[3]; BRAIN, 33 mg/kg",12584.1
same,log2 (sample/control),"[3]; BRAIN, 33 mg/kg vs VEH",−0.05145
same,Hybridization signal sample_Cy5,"[3]; LIVER, 3.3 mg/kg",3670.67
same,log2 (sample/control),"[3]; LIVER, 3.3 mg/kg vs VEH",0.3692
same,Hybridization signal sample_Cy5,"[3]; LIVER, 11 mg/kg",3985.13
same,log2 (sample/control),"[3]; LIVER, 11 mg/kg vs VEH",0.457
same,Hybridization signal sample_Cy5,"[3]; LIVER, 33 mg/kg",4335.41
same,log2 (sample/control),"[3]; LIVER, 33 mg/kg vs VEH",0.3205
same,Hybridization signal sample_Cy5,"[3]; SPLEEN, 3.3 mg/kg",8986.8
same,log2 (sample/control),"[3]; SPLEEN, 3.3 mg/kg vs VEH",−0.9476
same,Hybridization signal sample_Cy5,"[3]; SPLEEN, 11 mg/kg",9222.71
same,log2 (sample/control),"[3]; SPLEEN, 11 mg/kg vs VEH",−0.8739
same,Hybridization signal sample_Cy5,"[3]; SPLEEN, 33 mg/kg",6535.64
same,log2 (sample/control),"[3]; SPLEEN, 33 mg/kg vs VEH",−1.41
same,Hybridization signal sample_Cy5,"[4]; BRAIN, TUBB3, 3.3 mg/kg",4740.83
same,log2 (sample/control),"[4]; BRAIN, TUBB3, 3.3 mg/kg vs VEH",−0.05126
same,Hybridization signal sample_Cy5,"[4]; BRAIN, TUBB3, 11 mg/kg",6217.25
same,log2 (sample/control),"[4]; BRAIN, TUBB3, 11 mg/kg vs VEH",−0.02834
same,Hybridization signal sample_Cy5,"[4]; BRAIN, TUBB3, 33 mg/kg",5722.06
same,log2 (sample/control),"[4]; BRAIN, TUBB3, 33 mg/kg vs VEH",0.1073
same,Hybridization signal sample_Cy5,"[4]; LIVER, TUBB3, 3.3 mg/kg",49.0459
same,log2 (sample/control),"[4]; LIVER, TUBB3, 3.3 mg/kg vs VEH",−0.4483
same,Hybridization signal sample_Cy5,"[4]; LIVER, TUBB3, 11 mg/kg",43.197
same,log2 (sample/control),"[4]; LIVER, TUBB3, 11 mg/kg vs VEH",−0.6411
same,Hybridization signal sample_Cy5,"[4]; LIVER, TUBB3, 33 mg/kg",52.03
same,log2 (sample/control),"[4]; LIVER, TUBB3, 33 mg/kg vs VEH",−0.4211
same,Hybridization signal sample_Cy5,"[4]; SPLEEN, TUBB3, 3.3 mg/kg",88.3418
same,log2 (sample/control),"[4]; SPLEEN, TUBB3, 3.3 mg/kg vs VEH",0.169
same,Hybridization signal sample_Cy5,"[4]; SPLEEN, TUBB3, 11 mg/kg",229.738
same,log2 (sample/control),"[4]; SPLEEN, TUBB3, 11 mg/kg vs VEH",1.521
same,Hybridization signal sample_Cy5,"[4]; SPLEEN, TUBB3, 33 mg/kg",167.826
same,log2 (sample/control),"[4]; SPLEEN, TUBB3, 33 mg/kg vs VEH",1.398
